The values below come from patent US20240288345A1, “FLUORESCENT STAINING METHOD” (OSAKA UNIVERSITY, priority 2022, published 2024).

The test system of data set [1] is human colonic mucosal tissue. The experiment in a line: Clearing and whole-mount 3D fluorescent staining of human colonic mucosal tissue (Test Example B). The following applies: for 3D imaging signal of cleared tissue: CUBIC clearing, periodic acid, 50 μM, 2-3 days, excitation 488 nm; for Staining property for a sample having a thickness after clearing treatment: summary of Examples and Test Examples. As to the method: CUBIC-L and CUBIC-R+reagents (T3740 and T3741, Tokyo Chemical Industry Co., Ltd.) were used in tissue clearing. Atissue removal procedure is simply described below.
A formaldehyde-fixed tissue specimen was washed with PBS, and was subsequently immersed in a 50% (v/v) CUBIC-L reagent (mixture containing water and the CUBIC-L reagent at 1:1) overnight. Further, the specimen was immersed in the CUBIC-L reagent at 37° C. for 5 days or 6 days while being gently shaken. Next, each of those specimens was washed with PBS, was immersed in 30% (w/v) of sucrose in the PBS, and was frozen in O.C.T. COMPOUND at −80° C. overnight. […] After having been washed with PBS, the specimen was stained by being gently shaken at room temperature for 2 days or 3 days together with FAM hydrazide, 5-isomer (50 μM), Compound 1 (50 μM), Alexa Fluor 488 hydrazide (50 µM), BDP FL hydrazide ([…]), or fluorescein (50 µM) in PBS containing 0.5% (v/v) of Triton X-100 (12967, Nacalai Tesque, Inc.). When nuclear counterstaining was performed, propidium iodide (PI) (10 μg/mb, P21493, Life Technologies Corporation) or RedDot-2 (1:100, 40061-T, Biotium, Inc.) was also added to the staining solution. After the staining step, the specimen was washed with PBS, and was immersed in a 50% (v/v) CUBIC-R+reagent (mixture containing water and the CUBIC-R+reagent at 1:1) overnight. Further, the specimen was immersed in the CUBIC-R+reagent for 1 day or 2 days while being gently shaken. A cleared tissue specimen thus obtained was subjected to 3D imaging with a confocal fluorescence microscope or a light-sheet fluorescence microscope. A wavelength of 488 nm was applied as the excitation wavelength of each of FAM hydrazide, Compound 1, Alexa Fluor 488 hydrazide, BDP FL hydrazide, and fluorescein, and the fluorescence detection wavelength range of each of these materials was from 490 nm to 562 nm.
A 3D image was obtained by using a confocal microscope (Zeiss LSM880 Confocal/Multiphoton, Carl Zeiss AG) or a light-sheet fluorescence microscope (Zeiss Lightsheet 7, Carl Zeiss AG), All pieces of raw image data were reconstructed and analyzed with Imaris software (version 9.2.1, Bitplane Inc.).
A human colonic mucosal tissue after its formalin fixation, which had been excised into a square about 4 mm on a side, was subjected to clearing treatment and to whole-mount 3D tissue staining through use of FAM hydrazide, Alexa Fluor 488 hydrazide, BDP FL hydrazide, or fluorescein as a stain.

Data set [2] concerns goblet cell mucus of human colorectal mucosal tissue. The experiment in a line: Fluorescent staining of frozen sliced specimen of human colonic mucosa (Test Example A). The following applies: for Fluorescent staining signal in goblet cell mucus, sliced section: 10 μm frozen section, 0.5% periodic acid pretreatment, 50 μM overnight. Here is the method: A tissue to be stained was washed with phosphate buffered saline (PBS), was immersed in 30% (w/v) of sucrose in the PBS, and was frozen in O.C.T. COMPOUND (45833, Sakura Finetek) at −80° ° C. overnight. The frozen tissue was cut into a thickness of 10 μm with a cryostat (CM3050 S, Leica Biosystems). The resultant frozen section was washed with PBS three times, and was subjected to pretreatment with a 0.5% solution of periodic acid (HIOA) (86171, MUTO PURE CHEMICALS CO., LTD.) at room temperature for 30 minutes. The section was washed with PBS three times, and was incubated in FAM hydrazide, 5-isomer((50 µM, 24170, BroadPharm, in this description, sometimes referred to as “FAM hydrazide”), Alexa Fluor 488 hydrazide (50 μM, A10436, ThermoFisher Scientific, Inc.), BDP FL hydrazide (50 μM, 11470, Lumiprobe Corporation), or fluorescein (50 µM, FUJIFILM Wako Pure Chemical Corporation) diluted with PBS at room temperature overnight. After that, the section was washed with PBS and an image thereof was obtained with a confocal microscope.
A section of a human colorectal mucosal tissue sampled from the non-tumor region of a surgical specimen of colorectal cancer was subjected to fluorescent staining through use of FAM hydrazide, Alexa Fluor 488 hydrazide, BDP FL hydrazide, or fluorescein serving as a fluorescent skeleton as a stain.

The nature of data set [3]: Light characteristics: molar extinction coefficient and quantum yield (Table 1). Format: physicochemical. The following applies: 10 mM sodium phosphate buffer, pH 7.4. The text has this:
When propionaldehyde was caused to act on DAF-2 (product model number: SK1001-01, Goryo Chemical, Inc.), Compound 16 below was obtained. It was recognized that Compound 16 was fluorescent and its fluorescence intensity increased along with the formation of a benzimidazole ring. […] The formation of a covalent bond with the aldehyde enables detection by fluorescence emission.

A short description of data set [4]: Fluorescence spectra before and after addition of propionaldehyde. Format: physicochemical. The following applies: 0.02 mmol/L in 10 mmol/L sodium phosphate buffer pH 7.4; propionaldehyde 0.10 mmol/L; room temperature 4 days. As to the method:
Propionaldehyde was added to a 10 mmol/L sodium phosphate buffer (pH: 7.4) containing 0. 02 mmol/L of each of DAF-2 and Compound 2 so that its final concentration became 0.10 mmol/L, followed by stirring at room temperature for 4 days. The absorption and fluorescence spectra of each of the solutions before the addition of the aldehyde and after the addition were measured.

The subject of data set [5] is colonic mucosal epithelium. Description: Staining combined with CUBIC tissue clearing, 3D imaging (Example 5). More on the design: species or system human. The following applies: CUBIC-L/CUBIC-R+ clearing, periodic acid pretreatment, 50 μM, room temperature 3 days. Here is the method: Specifically, the human colonic mucosal tissue sample after the formalin fixation was sufficiently washed with PBS, and was then immersed in a solution, which had been obtained by diluting a CUBIC-L reagent with distilled water to 1/2, at 37° ° C. while being gently shaken. After that, the sample was immersed in the CUBIC-L reagent, and was treated at 37° C. while being gently shaken. During the treatment, the CUBIC-L reagent was replaced with a new one at an interval of once per 1 to 2 days. After that, the sample was sufficiently washed with PBS, and was then immersed in PBS containing 30% (w/v) of sucrose. After that, a frozen block of the Sample was produced by using TISSUE-TEK O.C.T. COMPOUND. The frozen block was thawed, and was then sufficiently washed with PBS and subjected to pretreatment with a […] aqueous solution of periodic acid, followed by staining with a solution, which had been obtained by diluting DAF-2 (50 μM) with PBS, at room temperature for 3 days. After that, the stained product was sufficiently washed with PBS, and was then immersed in a solution obtained by diluting a CUBIC-R+reagent with distilled water to 1/2, followed by gentle shaking at room temperature. After that, the resultant was immersed in the CUBIC-R+reagent at room temperature for 1 day while being gently shaken. An image of the resultant was taken with a confocal microscope. […]

For data set [6] the following is noted: 100 mM sodium phosphate buffer, pH 7.4, cited from earlier work.
Data set [7] relates to basement membrane of a renal glomerulus. Description: Staining of basement membrane of renal glomerulus (Example 5). The following applies: staining as for colonic section. Here is the method:
(§1) Specifically, the human colonic mucosal tissue sample after the formalin fixation was sufficiently washed with PBS, and was then immersed in PBS containing 30% (w/v) of sucrose, followed by the production of a frozen block with TISSUE-TEK O. C. T. COMPOUND. The frozen block was sliced into a thickness of 8 μm to produce a frozen section. The frozen section was washed with PBS, and was then stained with a solution, which had been obtained by diluting DAF-2 ([…]) or Compound 2 (50 μM) with PBS, at room temperature for 1 day. After that, the stained product was sufficiently washed with PBS. Then, the washed product was mounted with a water-soluble mounting medium, and an image thereof was taken with a confocal microscope.

The subject of data set [8] is mucus of a goblet cell of colonic mucosa. The experiment in a line: Staining of frozen sliced section of human colonic mucosal tissue (Example 5). The following applies: 8 μm frozen section, 50 μM in PBS, room temperature 1 day, confocal microscope.
Description: A fluorescent probe containing a diaminobenzene structure, such as DAF-2 or Compound 2, was examined for its staining property in the mucus of a goblet cell by using a frozen sliced section of a human colonic mucosal tissue as a positive control analyte. Specifically, a sliced frozen section was cut out of the colonic mucosal tissue after its formalin fixation, and was stained with a group of candidate fluorescent probes and washed with phosphate buffered saline. After that, an image of the section was taken with a confocal fluorescence microscope.
as §1

Entries after “also recorded” stand apart in the source; their conditions may differ. Like-named read-outs stand apart in the source and are kept apart here.

For `Cc1cc(C)n2c1C=C1C=CC(CCC(=O)NN)=[N+]1[B-]2(F)F.Cl` [BDP FL hydrazide], in data set [1], the “3D imaging signal of cleared tissue” value is given as “weak” and the “Staining property for a sample having a thickness after clearing treatment” value (“Staining property” for short) is “insufficient”. Further, the “Fluorescent staining signal in goblet cell mucus, sliced section” value in data set [2] is listed as “weak”.

In data set [3], `CCc1nc2cc(C(=O)O)c(-c3c4ccc(=O)cc-4oc4cc(O)ccc34)cc2[nH]1` [Compound 16] came in with a Quantum yield of 0.85 and a λabs of 489 nm. The Molar extinction coefficient in data set [3] (in M-1 cm-1 (unit assumed)) was 63,000.

As for `Nc1cc(C(=O)O)c(-c2c3ccc(=O)cc-3oc3cc(O)ccc23)cc1N` [DAF-2], in data set [4], the “Fluorescence intensity after addition of the aldehyde compared to before” value was “increase”. Further, the “3D imaging of colonic mucosal epithelium” value in data set [5] is on record as “enabled the 3D imaging”. In data set [6], the Quantum yield is 0.005 and the λabs was 486 nm. In addition, the Molar extinction coefficient in data set [6] (in M-1 cm-1 (unit assumed)) was 79,000. Further, the “Staining property” value in data set [1] is listed as “significantly excellent”. Further, the “Visualization of basement membrane of renal glomerulus” value in data set [7] was “clearly visualized”. The “Staining of mucus of goblet cell of colonic mucosa” value in data set [8] was “clearly stained”.

As to `Cc1cc(N)c(N)cc1-c1c2ccc(=O)cc-2oc2cc(O)ccc12` [Compound 2], the “Fluorescence intensity after addition of the aldehyde compared to before” value in data set [4] is reported as “increase”. In addition, in data set [5], the “3D imaging of colonic mucosal epithelium” value is listed as “enabled the 3D imaging”. Moreover, the “Staining property” value in data set [1] is “significantly excellent”. Moreover, the “Visualization of basement membrane of renal glomerulus” value in data set [7] was “clearly visualized”. Moreover, in data set [8], the “Staining of mucus of goblet cell of colonic mucosa” value is “clearly stained”.

In the case of Alexa Fluor 488 hydrazide, in data set [1], the “3D imaging signal of cleared tissue” value is recorded as “weak” and the “Staining property” value is given as “insufficient”. In data set [2], the “Fluorescent staining signal in goblet cell mucus, sliced section” value is listed as “clear positive image; also recorded: clear staining”. The “Fluorescent staining signal without oxidation treatment with HIO4, sliced section” value in data set [2] (no HIO4 oxidation) was “not obtained”.
